Marks after values point to notes of the source that are not given here.

Tested on in one series: not listed separately
Kind of series: Measurement of LogP values by HPLC on reversed phase columns (EEC directive 79/831 Annex V.A8). The series is classed as physicochemical.
Settings: not given
Here is the method:
Measurement of Log P values was performed as outlined above.
For the compound `N#Cc1cncn1CC(O)(Cc1ccccc1F)C1(Cl)CC1` (single isomer, unassigned) [Example I-133], the LogP was 2.59^[a]. In the case of `CC(C)(Cl)C(=O)Cn1cncc1C#N` [XVII-8], the LogP is 1.65^[a].

`N#Cc1cncn1CC(O)(Cc1ccc(Oc2ccc(Cl)cc2)cc1Cl)C1(Cl)CC1` (racemic) [Example I-53]: the LogP is 4.54^[a].

Still in this series, the particulars now being: method [a]: LC-UV, acidic range, 0.1% formic acid in water and acetonitrile as eluent; Table 1.
As for `N#Cc1cncn1CC(O)(Cc1ccc(F)cc1)C1(F)CC1` (stereo not shown) [Example I-100], the chromatographic logP worked out at 2.35. Same read-out and setting: the value for `N#Cc1cncn1CC(O)(Cc1ccc(F)cc1)C1CCC1` (stereo not shown) [Example I-160] was 2.56; that for `N#Cc1cncn1CC(O)(Cc1cccc(Cl)c1F)C1(F)CC1` (stereo not shown) [Example I-94] was 2.68; that for `CC1(C(O)(Cc2ccc(F)c(F)c2F)Cn2cncc2C#N)CC1` (stereo not shown) [Example I-102] was 2.82.

Still in this series, the particulars now being: method [a]: LC-UV, acidic range, 0.1% formic acid in water and acetonitrile as eluent; Table 2, compounds of formula (XVII).
Turning to `N#Cc1cncn1CC(=O)C1(F)CCCC1` [XVII-16], the chromatographic logP was 1.81. Still for that read-out and setting: the value for `CC(C)(C)C(=O)Cn1cncc1C#N` [XVII-7] was 1.47; that for `N#Cc1cncn1CC(=O)C1CCCC1` [XVII-15] was 1.57; that for `O=C(Cn1cncc1Cl)C1(Cl)CC1` [XVII-1, 1-(1-chlorocyclopropyl)-2-(5-chloro-1H-imidazol-1-yl)ethanone] was 0.75. `CC(C)(C)CC(=O)Cn1cncc1C#N` [XVII-13]: the chromatographic logP was determined as 1.88.

`COC(=O)c1cncn1CC(=O)C1(Cl)CC1` [XVII-6]: the chromatographic logP is 1.2.

Another series has as its system Puccinia recondita. Kind of series: In vivo preventive test on Puccinia recondita (brown rust on wheat), Examples C and R3. Particulars: Example R3, wheat, preventive spray, 100 ppm, evaluated 11 days after inoculation.
In the case of `OC(Cc1ccc(Cl)cc1F)(Cn1cnc(Cl)c1)C1(Cl)CC1` (racemic) [drawing 102], the Efficacy in % stood at 0%. Turning to `N#Cc1cn(CC(O)(Cc2ccc(Cl)cc2F)C2(Cl)CC2)cn1` (racemic) [drawing 100], the Efficacy in % was found to be 81%. With `OC(Cc1ccc(Cl)cc1F)(Cn1cnc(Br)c1)C1(Cl)CC1` (racemic) [drawing 98], the Efficacy in % was determined as 0%.

The same series, now with this note: Example R3, wheat, preventive spray, 500 ppm, evaluated 11 days after inoculation.
Consider `OC(Cc1ccc(Cl)cc1F)(Cn1cnc(Cl)c1)C1(Cl)CC1` (racemic) [drawing 102], for which the Efficacy in % is 67%. The same measure, in the same setting: then `N#Cc1cn(CC(O)(Cc2ccc(Cl)cc2F)C2(Cl)CC2)cn1` (racemic) [drawing 100], with 94%; and `OC(Cc1ccc(Cl)cc1F)(Cn1cnc(Br)c1)C1(Cl)CC1` (racemic) [drawing 98], with 94%.

Still in this series, the particulars now being: Puccinia recondita, 264 h; 500 ppm of active ingredient; wheat, preventive spray, evaluated 11 days after inoculation; read-out: efficacy.
In the case of `N#Cc1cncn1CC(O)(Cc1ccccc1Cl)C1CCC1` (stereo not shown) [Example I-81], the pest or weed control at 500 ppm lay within 90 to 100%.

For the compound `N#Cc1cncn1CC(O)(Cc1ccc(F)cc1F)C1CCC1` (stereo not shown) [Example I-127], the pest or weed control at 500 ppm lay within 80 to 89%. Still for that read-out and setting: the value for `N#Cc1cncn1CC(O)(C(F)c1ccccc1F)C1(Cl)CC1` (stereo not shown) [Example I-31] was 90 to 100%. Same read-out and setting: then `N#Cc1cncn1CC(O)(Cc1ccc(Cl)cc1F)C1CC1` (stereo not shown) [Example I-115], with 90 to 100%; and `N#Cc1cncn1CC(O)(Cc1ccc(Cl)cc1Cl)C1(Cl)CC1` (stereo not shown) [Example I-52], with 80 to 89%; and `N#Cc1cncn1CC(O)(Cc1cc(Cl)nc(Cl)c1)C1(Cl)CC1` (stereo not shown) [Example I-61], with 70 to 79%.

Still in this series, the particulars now being: Puccinia recondita, 264 h; Example R3, wheat, preventive spray, 100 ppm, evaluated 11 days after inoculation; read-out: Efficacy in %.
For the compound `OC(Cc1ccccc1Cl)(Cn1cnc(Br)c1)C1(Cl)CC1` (stereo not shown) [drawing 87], the pest or weed control at 100 ppm is 75%.

`Cc1cn(CC(O)(Cc2ccccc2Cl)C2(Cl)CC2)cn1` (stereo not shown) [drawing 89]: the pest or weed control at 100 ppm is 29%. On the same count and under the same terms, the value for `OC(Cc1ccccc1F)(Cn1cnc(Cl)c1)C1(Cl)CC1` (stereo not shown) [drawing 95] was 0%.

Still in this series, the particulars now being: Puccinia recondita, 264 h; Example R3, wheat, preventive spray, 500 ppm, evaluated 11 days after inoculation; read-out: Efficacy in %.
On to `OC(Cc1ccccc1Cl)(Cn1cnc(Br)c1)C1(Cl)CC1` (stereo not shown) [drawing 87], for which the pest or weed control at 500 ppm amounted to 81%. Consider `Cc1cn(CC(O)(Cc2ccccc2Cl)C2(Cl)CC2)cn1` (stereo not shown) [drawing 89], for which the pest or weed control at 500 ppm was 86%. As for `OC(Cc1ccccc1F)(Cn1cnc(Cl)c1)C1(Cl)CC1` (stereo not shown) [drawing 95], the pest or weed control at 500 ppm was 33%.

In a further series the test system is Septoria tritici. Put plainly: In vivo preventive test on Septoria tritici (leaf spot on wheat), Examples E, Q3 and R5. Particulars: Zymoseptoria tritici, 576 h, 500 ppm of active ingredient; wheat, preventive spray, evaluated 24 days after inoculation; read-out: efficacy.
With `N#Cc1cncn1CC(O)(Cc1ccccc1Cl)C1CCC1` (stereo not shown) [Example I-81], the pest or weed control at 500 ppm lay in the range of 90 to 100%. `N#Cc1cncn1CC(O)(Cc1ccc(F)cc1F)C1CCC1` (stereo not shown) [Example I-127]: the pest or weed control at 500 ppm fell in the range of 90 to 100%. Consider `N#Cc1cncn1CC(O)(C(F)c1ccccc1F)C1(Cl)CC1` (stereo not shown) [Example I-31], for which the pest or weed control at 500 ppm is 90 to 100%. On to `N#Cc1cncn1CC(O)(Cc1ccc(Cl)cc1F)C1CC1` (stereo not shown) [Example I-115], for which the pest or weed control at 500 ppm fell in the range of 90 to 100%.

For `N#Cc1cncn1CC(O)(Cc1ccc(Cl)cc1Cl)C1(Cl)CC1` (stereo not shown) [Example I-52], the pest or weed control at 500 ppm lay within 90 to 100%.

Regarding `N#Cc1cncn1CC(O)(Cc1cc(Cl)nc(Cl)c1)C1(Cl)CC1` (stereo not shown) [Example I-61], the pest or weed control at 500 ppm fell in the range of 90 to 100%.

The next series has as its system Sphaerotheca fuliginea. Put plainly: In vivo preventive test on Sphaerotheca fuliginea (powdery mildew on cucurbits), Examples F and R6. The settings on record: Podosphaera fuliginea, 360 h; 500 ppm of active ingredient; gherkin, preventive spray, evaluated 15 days after inoculation; read-out: efficacy.
As to `N#Cc1cncn1CC(O)(Cc1ccccc1Cl)C1CCC1` (stereo not shown) [Example I-81], the pest or weed control at 500 ppm was in the range of 90 to 100%. `N#Cc1cncn1CC(O)(Cc1ccc(F)cc1F)C1CCC1` (stereo not shown) [Example I-127]: the pest or weed control at 500 ppm lay in the range of 90 to 100%. As for `N#Cc1cncn1CC(O)(C(F)c1ccccc1F)C1(Cl)CC1` (stereo not shown) [Example I-31], the pest or weed control at 500 ppm was 90 to 100%. Still for that read-out and setting: then `N#Cc1cncn1CC(O)(Cc1ccc(Cl)cc1F)C1CC1` (stereo not shown) [Example I-115], with 90 to 100%. In the case of `N#Cc1cncn1CC(O)(Cc1ccc(Cl)cc1Cl)C1(Cl)CC1` (stereo not shown) [Example I-52], the pest or weed control at 500 ppm lay within 90 to 100%.

Take `N#Cc1cncn1CC(O)(Cc1cc(Cl)nc(Cl)c1)C1(Cl)CC1` (stereo not shown) [Example I-61]: the pest or weed control at 500 ppm fell in the range of 90 to 100%.

For a further series, the system named is Uromyces appendiculatus. Put plainly: In vivo preventive test on Uromyces appendiculatus (bean rust), Examples G and R7. The settings on record: 264 h, 500 ppm of active ingredient, bean, preventive spray, evaluated 11 days after inoculation, read-out: efficacy.
As for `N#Cc1cncn1CC(O)(Cc1ccccc1Cl)C1CCC1` (stereo not shown) [Example I-81], the pest or weed control at 500 ppm lay within 90 to 100%. With `N#Cc1cncn1CC(O)(Cc1ccc(F)cc1F)C1CCC1` (stereo not shown) [Example I-127], the pest or weed control at 500 ppm lay within 90 to 100%. With `N#Cc1cncn1CC(O)(C(F)c1ccccc1F)C1(Cl)CC1` (stereo not shown) [Example I-31], the pest or weed control at 500 ppm lay within 90 to 100%.

Regarding `N#Cc1cncn1CC(O)(Cc1ccc(Cl)cc1F)C1CC1` (stereo not shown) [Example I-115], the pest or weed control at 500 ppm fell in the range of 90 to 100%. On the same count and under the same terms, the value for `N#Cc1cncn1CC(O)(Cc1ccc(Cl)cc1Cl)C1(Cl)CC1` (stereo not shown) [Example I-52] was 90 to 100%; that for `N#Cc1cncn1CC(O)(Cc1cc(Cl)nc(Cl)c1)C1(Cl)CC1` (stereo not shown) [Example I-61] was 90 to 100%.

The values above are taken from US10231453B2, “5-substituted imidazole derivatives” (BAYER CROPSCIENCE AKTIENGESELLSCHAFT, priority 2015, dated 2019).
